Laboratory results as given in PubChem BioAssay (NCI).
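Each compound was tested at five concentrations against cells in 96-well plates for 48 hours. TGI: concentration producing complete growth inhibition.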

Tests used:
Test in all cases: DTP human tumour cell line panel, 48 h
MALME-3M melanoma = test system: MALME-3M melanoma
SNB-19 CNS = test system: SNB-19 CNS
SNB-75 CNS = test system: SNB-75 CNS
UO-31 renal = test system: UO-31 renal
OVCAR-3 ovarian = test system: OVCAR-3 ovarian
SF-268 CNS = test system: SF-268 CNS
NCI-H23 lung = test system: NCI-H23 lung
SK-MEL-5 melanoma = test system: SK-MEL-5 melanoma
HL-60(TB) leukemia = test system: HL-60(TB) leukemia
SF-295 CNS = test system: SF-295 CNS
MCF7 breast = test system: MCF7 breast
SW-620 colon = test system: SW-620 colon
SN12C renal = test system: SN12C renal
DU-145 prostate = test system: DU-145 prostate
LOX IMVI melanoma = test system: LOX IMVI melanoma
COLO 205 colon = test system: COLO 205 colon
MDA-MB-435 = test system: MDA-MB-435
MDA-N = test system: MDA-N
NCI-H460 lung = test system: NCI-H460 lung
A498 renal = test system: A498 renal
SK-MEL-2 melanoma = test system: SK-MEL-2 melanoma
U251 CNS = test system: U251 CNS
ACHN renal = test system: ACHN renal
SR leukemia = test system: SR leukemia
OVCAR-4 ovarian = test system: OVCAR-4 ovarian
HOP-62 NSCLC = test system: HOP-62 NSCLC
RPMI-8226 leukemia = test system: RPMI-8226 leukemia
OVCAR-8 ovarian = test system: OVCAR-8 ovarian
K-562 leukemia = test system: K-562 leukemia
HOP-92 NSCLC = test system: HOP-92 NSCLC
TK-10 renal = test system: TK-10 renal
MDA-MB-231 breast = test system: MDA-MB-231 breast
CCRF-CEM leukemia = test system: CCRF-CEM leukemia
UACC-257 melanoma = test system: UACC-257 melanoma
HCT-15 colon = test system: HCT-15 colon
SK-MEL-28 melanoma = test system: SK-MEL-28 melanoma
A549 NSCLC = test system: A549 NSCLC
CAKI-1 renal = test system: CAKI-1 renal
NCI-H226 lung = test system: NCI-H226 lung
NCI/ADR-RES ovarian = test system: NCI/ADR-RES ovarian
HT29 colon = test system: HT29 colon
RXF 393 renal = test system: RXF 393 renal
HCT-116 colon = test system: HCT-116 colon
IGROV1 ovarian = test system: IGROV1 ovarian
PC-3 prostate = test system: PC-3 prostate
BT-549 breast = test system: BT-549 breast
SF-539 CNS = test system: SF-539 CNS
786-0 renal = test system: 786-0 renal
EKVX NSCLC = test system: EKVX NSCLC
T-47D breast = test system: T-47D breast
HS 578T breast = test system: HS 578T breast
MOLT-4 leukemia = test system: MOLT-4 leukemia
M14 melanoma = test system: M14 melanoma
HCC-2998 colon = test system: HCC-2998 colon
OVCAR-5 ovarian = test system: OVCAR-5 ovarian
KM12 colon = test system: KM12 colon
SK-OV-3 ovarian = test system: SK-OV-3 ovarian
NCI-H522 lung = test system: NCI-H522 lung
UACC-62 melanoma = test system: UACC-62 melanoma
DMS 114 small cell lung = test system: DMS 114 small cell lung
SNB-78 CNS = test system: SNB-78 CNS
DMS 273 small cell lung = test system: DMS 273 small cell lung
HOP-18 NSCLC = test system: HOP-18 NSCLC
KM20L2 colon = test system: KM20L2 colon
DLD-1 colon = test system: DLD-1 colon

Measured: TGI

CN(CC1(CO)CCC1)c1cc(Cl)nc(N)n1
not listed: DMS 114 small cell lung | SNB-78 CNS | DMS 273 small cell lung | HOP-18 NSCLC | KM20L2 colon | DLD-1 colon
> 100 µM: all other assays above

COc1cc(C2C(C(=O)O)=C(CO)Oc3cc4c(cc32)OCO4)cc(OC)c1O (centres undefined)
not listed: SF-268 CNS | NCI-H23 lung | MCF7 breast | DU-145 prostate | MDA-MB-435 | MDA-N | A498 renal | SK-MEL-2 melanoma | SR leukemia | MDA-MB-231 breast | NCI-H226 lung | NCI/ADR-RES ovarian | RXF 393 renal | PC-3 prostate | BT-549 breast | 786-0 renal | T-47D breast | HS 578T breast | HCC-2998 colon | OVCAR-5 ovarian | KM12 colon | NCI-H522 lung
> 100 µM: all other assays above

CS(=O)(=O)N1CC(CCl)c2ccc([N+](=O)[O-])cc21 (centres undefined)
not listed: SNB-75 CNS | DMS 114 small cell lung | SNB-78 CNS | DMS 273 small cell lung | HOP-18 NSCLC | KM20L2 colon | DLD-1 colon
> 100 µM: all other assays above

CC(=O)Nc1cc([As](=O)(O)O)ccc1O
not listed: DMS 114 small cell lung | SNB-78 CNS | DMS 273 small cell lung | HOP-18 NSCLC | KM20L2 colon | DLD-1 colon
> 100 µM: all other assays above
